Assays:
Experiment in all cases: relative viability (nuclei count vs DMSO), 5 days (fraction); higher = more cells survive
AZD8055 + Crizotinib = compound: COc1ccc(-c2ccc3c(N4CCOC[C@@H]4C)nc(N4CCOC[C@@H]4C)nc3n2)cc1CO [AZD8055] + C[C@@H](Oc1cc(-c2cnn(C3CCNCC3)c2)cnc1N)c1c(Cl)ccc(F)c1Cl [Crizotinib] (partner 1 µM)
Summary of the method: (§1)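 One day after seeding in 1536-well plates, lung cancer cell lines were dosed by pin tool. Dosing was either single-drug or a fixed anchor-drug dose plus five library-drug doses (not always all listed) in √10 steps. After 5 days, nuclei were stained in one fix-and-stain step and counted on 4× images, and relative viability is the nuclei count of treated wells over that of vehicle wells, given as the median of duplicate plates.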

AZD8055 + Linsitinib = compound: COc1ccc(-c2ccc3c(N4CCOC[C@@H]4C)nc(N4CCOC[C@@H]4C)nc3n2)cc1CO [AZD8055] + C[C@]1(O)C[C@@H](c2nc(-c3ccc4ccc(-c5ccccc5)nc4c3)c3c(N)nccn32)C1 [Linsitinib] (partner 1 µM)
Summary of the method: as §1

AZD8055 + OSI-027 = compound: COc1ccc(-c2ccc3c(N4CCOC[C@@H]4C)nc(N4CCOC[C@@H]4C)nc3n2)cc1CO [AZD8055] + COc1cccc2cc(-c3nc([C@H]4CC[C@H](C(=O)O)CC4)n4ncnc(N)c34)[nH]c12 [OSI-027] (partner 0.5 µM)
Summary of the method: as §1

AZD8055 + Tozasertib = compound: COc1ccc(-c2ccc3c(N4CCOC[C@@H]4C)nc(N4CCOC[C@@H]4C)nc3n2)cc1CO [AZD8055] + Cc1cc(Nc2cc(N3CCN(C)CC3)nc(Sc3ccc(NC(=O)C4CC4)cc3)n2)n[nH]1 [Tozasertib] (partner 0.1 µM)
Summary of the method: as §1

Cell Line	relative viability (AZD8055 + Crizotinib; first compound 0.01 µM)	relative viability (AZD8055 + Crizotinib; first compound 0.03162 µM)	relative viability (AZD8055 + Crizotinib; first compound 0.1 µM)	relative viability (AZD8055 + Crizotinib; first compound 0.3162 µM)	relative viability (AZD8055 + Crizotinib; first compound 1 µM)	relative viability (AZD8055 + Linsitinib; first compound 0.01 µM)	relative viability (AZD8055 + Linsitinib; first compound 0.03162 µM)	relative viability (AZD8055 + Linsitinib; first compound 0.1 µM)	relative viability (AZD8055 + Linsitinib; first compound 0.3162 µM)	relative viability (AZD8055 + Linsitinib; first compound 1 µM)	relative viability (AZD8055 + OSI-027; first compound 0.01 µM)	relative viability (AZD8055 + OSI-027; first compound 0.03162 µM)	relative viability (AZD8055 + OSI-027; first compound 0.1 µM)	relative viability (AZD8055 + OSI-027; first compound 0.3162 µM)	relative viability (AZD8055 + OSI-027; first compound 1 µM)	relative viability (AZD8055 + Tozasertib; first compound 0.01 µM)	relative viability (AZD8055 + Tozasertib; first compound 0.03162 µM)	relative viability (AZD8055 + Tozasertib; first compound 0.1 µM)	relative viability (AZD8055 + Tozasertib; first compound 0.3162 µM)	relative viability (AZD8055 + Tozasertib; first compound 1 µM)
NCI-H838	0.969	0.745	0.476	0.293	0.307	0.664	0.383	0.32	0.208	0.25	0.377	0.404	0.383	0.262	0.31	0.293	0.27	0.248	0.184	0.204
SW 1573	0.777	0.812	0.449	0.317	0.21	0.725	0.584	0.484	0.267	0.153	0.696	0.528	0.47	0.221	0.18	0.174	0.229	0.241	0.155	0.135
PC-14	1.06	1.02	0.771	0.448	0.21	1.03	0.944	0.669	0.526	0.211	1.2	0.849	0.497	0.283	0.109	0.834	0.762	0.535	0.109	0.0948
LK-2	0.231	0.188	0.267	0.205	0.211	0.334	0.28	0.249	0.164	0.238	0.22	0.242	0.209	0.166	0.186	0.147	0.133	0.182	0.15	0.154
COR-L23	0.585	0.738	0.55	0.271	0.169	0.977	0.578	0.392	0.152	0.14	0.765	0.588	0.526	0.297	0.256	0.278	0.295	0.228	0.15	0.154
NCI-H1944	1.09	0.918	0.973	0.427	0.343	1.13	0.843	0.693	0.477	0.335	0.418	0.454	0.378	0.297	0.24	0.243	0.253	0.206	0.171	0.166
HCC-78	0.303	0.307	0.233	0.213	0.19	0.442	0.355	0.222	0.195	0.177	0.415	0.392	0.326	0.352	0.366	0.475	0.404	0.341	0.299	0.232
NCI-H2405	0.804	0.815	0.681	0.516	0.311	0.802	0.621	0.477	0.333	0.331	0.664	0.697	0.56	0.43	0.385	0.812	0.815	0.676	0.448	0.344
SK-LU-1	0.743	0.767	0.335	0.475	0.376	0.941	0.798	0.877	0.491	0.321	0.354	0.372	0.337	0.289	0.242	0.311	0.333	0.287	0.217	0.213
EMC-BAC-2	0.764	0.706	0.612	0.337	0.344	0.784	0.65	0.53	0.337	0.3	0.364	0.387	0.358	0.291	0.284	0.279	0.299	0.249	0.257	0.255
NCI-H596	1	0.78	0.624	0.322	0.423	0.991	0.792	0.457	0.386	0.395	0.685	0.731	0.582	0.413	0.315	0.698	0.698	0.434	0.308	0.329
LCLC-97TM1	0.365	0.352	0.154	0.158	0.193	0.182	0.143	0.13	0.122	0.139	0.502	0.472	0.577	0.422	0.415	0.207	0.157	0.128	0.118	0.137
H3255	1.3	0.818	0.718	0.407	0.301	0.925	0.858	0.63	0.468	0.277	0.706	0.572	0.587	0.454	0.423	0.574	0.716	0.535	0.604	0.359
LXF-289	0.902	0.855	0.807	0.702	0.686	1	0.997	0.812	0.568	0.515	0.891	0.899	0.727	0.693	0.625	0.234	0.295	0.212	0.201	0.105
UMC-11	0.543	0.535	0.321	0.29	0.189	0.995	0.884	0.539	0.251	0.266	0.494	0.452	0.367	0.302	0.284	0.196	0.224	0.208	0.2	0.211
LC-2-ad	0.429	0.502	0.473	0.384	0.312	0.852	0.803	0.56	0.414	0.397	0.937	0.864	0.706	0.618	0.523	0.491	0.564	0.366	0.339	0.377

Cell Line	relative viability (AZD8055 + Crizotinib; first compound 0.01 µM)	relative viability (AZD8055 + Crizotinib; first compound 0.03162 µM)	relative viability (AZD8055 + Crizotinib; first compound 0.1 µM)	relative viability (AZD8055 + Crizotinib; first compound 0.3162 µM)	relative viability (AZD8055 + Crizotinib; first compound 1 µM)	relative viability (AZD8055 + Linsitinib; first compound 0.01 µM)	relative viability (AZD8055 + Linsitinib; first compound 0.03162 µM)	relative viability (AZD8055 + Linsitinib; first compound 0.1 µM)	relative viability (AZD8055 + Linsitinib; first compound 0.3162 µM)	relative viability (AZD8055 + Linsitinib; first compound 1 µM)	relative viability (AZD8055 + OSI-027; first compound 0.01 µM)	relative viability (AZD8055 + OSI-027; first compound 0.03162 µM)	relative viability (AZD8055 + OSI-027; first compound 0.1 µM)	relative viability (AZD8055 + OSI-027; first compound 0.3162 µM)	relative viability (AZD8055 + OSI-027; first compound 1 µM)	relative viability (AZD8055 + Tozasertib; first compound 0.01 µM)	relative viability (AZD8055 + Tozasertib; first compound 0.03162 µM)	relative viability (AZD8055 + Tozasertib; first compound 0.1 µM)	relative viability (AZD8055 + Tozasertib; first compound 0.3162 µM)	relative viability (AZD8055 + Tozasertib; first compound 1 µM)
SK-MES-1	0.94	0.944	0.781	0.494	0.318	1.06	0.932	0.743	0.447	0.313	0.653	0.629	0.557	0.338	0.22	0.904	0.837	0.625	0.434	0.274
A-427	1.03	0.849	0.786	0.438	0.403	1.13	0.95	0.927	0.783	0.547	0.49	0.491	0.545	0.493	0.434	0.204	0.193	0.22	0.163	0.208
NCI-H322M	0.868	1.03	0.825	0.796	0.478	0.891	0.771	0.557	0.497	0.461	0.56	0.602	0.582	0.476	0.431	0.458	0.45	0.408	0.347	0.326
HCC-366	0.416	0.484	0.223	0.107	0.0921	0.539	0.245	0.218	0.0598	0.0927	1.08	1.01	0.845	0.437	0.288	0.14	0.0951	0.0932	0.0432	0.0587
NCI-H1975	0.943	0.959	0.515	0.386	0.254	0.897	0.581	0.469	0.265	0.219	0.677	0.56	0.375	0.237	0.235	0.804	0.619	0.375	0.189	0.178
NCI-H1437	0.946	0.963	0.899	0.337	0.19	0.832	0.731	0.425	0.143	0.155	0.973	0.88	0.753	0.354	0.389	0.437	0.458	0.496	0.373	0.238
NCI-H2009	1.01	1.05	0.832	0.831	0.273	1.17	1.1	0.891	0.692	0.374	0.72	0.562	0.641	0.338	0.292	0.763	0.735	0.723	0.535	0.279
NCI-H1651	0.896	0.738	0.786	0.633	0.529	0.845	0.796	0.689	0.305	0.282	0.871	0.682	0.603	0.32	0.413	0.695	0.64	0.694	0.414	0.317
LCLC-103H	1.04	0.918	0.719	0.807	0.484	1	0.929	0.723	0.467	0.481	0.444	0.437	0.44	0.356	0.32	0.493	0.494	0.399	0.367	0.25
NCI-H1666	0.936	1.01	0.812	0.648	0.465	0.802	0.666	0.417	0.552	0.375	0.894	0.905	0.887	0.747	0.717	0.623	0.862	0.589	0.523	0.51
NCI-H1734	0.734	0.587	0.472	0.256	0.282	0.857	0.638	0.457	0.289	0.262	0.665	0.553	0.493	0.319	0.225	0.234	0.26	0.23	0.194	0.196
EPLC-272H	0.865	0.739	0.498	0.494	0.37	1.1	0.926	0.669	0.404	0.373	0.252	0.255	0.28	0.228	0.243	0.279	0.152	0.161	0.229	0.222
NCI-H2023	0.521	0.507	0.339	0.119	0.119	0.45	0.343	0.28	0.17	0.12	0.445	0.347	0.266	0.13	0.116	0.314	0.325	0.258	0.115	0.109
BEN	0.956	0.531	0.44	0.351	0.31	0.955	0.574	0.41	0.325	0.279	0.308	0.374	0.322	0.291	0.251	0.563	0.48	0.492	0.471	0.345
COR-L 105	0.807	0.875	0.706	0.465	0.292	0.833	0.941	0.5	0.315	0.297	0.682	0.702	0.615	0.382	0.383	0.326	0.354	0.304	0.282	0.27
ABC-1	1.09	1.04	0.812	0.602	0.479	0.845	0.484	0.551	0.425	0.323	0.537	0.551	0.635	0.345	0.36	0.186	0.187	0.174	0.196	0.19
